Laboratory results as given in US20110076278A1 (priority 2005, published 2011).
Read-outs that look alike come from different tables or passages of the source.

What was measured:
[1] = tested on: choroidal neovascularization; test: Choroidal neovascularization model with Alzet osmotic pump; format: in vivo; conditions: versus vector (vehicle) alone
[2] = tested on: cancer cell lines; test: Proliferation of cancer cell lines; format: cell-based
[3] = Serum concentration in the choroidal neovascularization experiment; format: in vivo; conditions: choroidal neovascularization model, Alzet osmotic pump
[4] = cited from earlier work; for max. plasma concentration: in vivo
[5] = tested on: TIMP-1; test: TIMP-1 ELISA on supernatants of ARPE-19 cells under hypoxia; format: cell-based; conditions: Homo sapiens, ARPE-19, hypoxia 24 hours, read-out: IC50 TIMP-1 expression
Experimental: (§1) ARPE-19 was cultured in DMEM/F-12 medium supplemented with 10% heat-inactivated FBS, penicillin (100 U/mL), and streptomycin (100 ug/mL). Cells were grown in incubator with humidified atmosphere containing 5% CO2 at 37° C. To induce hypoxia conditions, cells are placed in a Billups-Rothenberg modular incubator chamber and flushed with artificial atmosphere gas mixture (5% carbon dioxide, 1% oxygen, and balance nitrogen). The hypoxia chamber was then placed in a 37° C. incubator.
(§2) APRE-19 cells were plated in two 96-well plates at a confluence of 80% and cultured overnight. The next day, a series dilution of BNC4 (100, 50, 25, 12.5, 6.25, 3.13, 1.56, 0.78, 0 nM) was added into cultures. […] Supernatants were collected for ELISAs and cells were saved for MTS assay (MTS assay readouts was used in normalizing cell numbers). […] Affection curves (BNC4 on secretion of angiogenesis proteins) and their IC50s were generated by plotting the average normalized absorbance (450 nm minus 540nm) for each treatment on Y axis versus the corresponding BNC4 concentrations on X axis using software XLfit 4.1.
(§3) ELISAs were then performed on the APRE-19 cells treated with BNC4 and incubated under normal or hypoxia conditions as described above. […] Supernatants were collected for ELISAs and cells were saved for MTS assay (MTS assay readouts was used in normalizing cell numbers). […]

[6] = tested on: VEGF; test: VEGF ELISA on supernatants of ARPE-19 cells under hypoxia; format: cell-based; conditions: Homo sapiens, ARPE-19, hypoxia 24 hours, read-out: IC50 VEGF expression
Experimental: as §1, §2, §3

[7] = tested on: HIF-1α; test: HIF-1α Western blot in ARPE-19 cells under hypoxia; format: cell-based, human
Experimental: Samples were fractionated on 3-8% Tris-Acetate gel (Invitrogen NUPAGE system) by sodium dodecyl sulfate (SDS)-polyacrylamide gel electropherosis and transferred onto nitrocellulose membrane. […] Anti-Beta-actin monoclonal antibody (Abcam, ab6276-100) was used at a 1:5000 dilution with a 30-minute incubation at room temperature.

[8] = tested on: angiogenin; test: Angiogenin ELISA on supernatants of ARPE-19 cells under hypoxia; format: cell-based; conditions: Homo sapiens, ARPE-19, hypoxia 24 hours, read-out: IC50 angiogenin expression
Experimental: as §1, §2, §3

| Compound | area of choroidal neovascularization [1] | decrease of the concentration effective for inhibiting proliferation of cancer cells by combination ([2]; combination with steroid signal modulator (Casodex)) [fold] | serum concentration [3] [ng/mL] | max. plasma concentration [4] | IC50 [5] [nM] | decrease of the concentration effective for inhibiting proliferation of cancer cells by combination [2] [fold] | IC50 [6] [nM] | plasma half-life ([4]; human, according to the literature) | inhibition of hypoxia-mediated HIF-1α induction ([7]; ARPE-19 cells, hypoxia, western blot (FIG. 1)) | potency relative to BNC1 in inhibiting HIF-1α expression ([7]; human retinal pigment epithelial cells) | IC50 [8] [nM] |
| --- | --- | --- | --- | --- | --- | --- | --- | --- | --- | --- | --- |
| C[C@@H]1O[C@@H](O[C@H]2C[C@@H](O)[C@]3(CO)[C@H]4[C@H](O)C[C@]5(C)[C@@H](C6=CC(=O)OC6)CC[C@]5(O)[C@@H]4CC[C@]3(O)C2)[C@H](O)[C@H](O)[C@H]1O [BNC1, ouabain] | reduced the area of choroidal neovascularization | 5 | 20 | about 0.03 μg/mL |  |  |  |  |  |  |  |
| C[C@@H]1O[C@@H](O[C@@H]2C=C3CC[C@@H]4[C@H](CC[C@]5(C)[C@@H](c6ccc(=O)oc6)CC[C@]45O)[C@@]3(C)CC2)[C@H](O)[C@H](O)[C@H]1O [BNC4, proscillaridin] | reduced the area of choroidal neovascularization |  | 60 | about 0.1 μg/mL | 12.9 | 5 | 32.5 | about 40 hours | inhibit hypoxia-mediated HIF-1α induction | about 10 times | 4.5 |
